# Assay results taken from article PMC5161434 (EBioMedicine, 2016).
# Key:
# [1] = Host toxicity in tumor-bearing mice; type: in vivo, BALB/c nude mice; conditions: 25 mg/kg daily, end of experiment; for organ weights (liver, kidneys, spleen, lung): versus vehicle
# A2780 cells [2] = experiment: PI staining cell-cycle distribution, A2780; type: cell-based, human; conditions: 24 h
# A2780 cells [3] = experiment: Western blotting of apoptosis, cell cycle and EMT proteins, A2780; type: cell-based, human; conditions: 24 h; for cleavage of caspase 3 and PARP: ARS4 1, 5, 10 μM, DHA or melphalan 10 μM
# OVCAR3 cells [4] = experiment: Western blotting of apoptosis, cell cycle and EMT proteins, OVCAR3; type: cell-based, human; conditions: 24 h; for cleavage of caspase 3 and PARP: ARS4 1, 5, 10 μM, DHA or melphalan 10 μM
# OVCAR3 = experiment: CCK-8 cell viability, OVCAR3 ovarian cancer cells; type: cell-based, human; conditions: for IC50: Homo sapiens, OVCAR-3, 48 h, read-out: IC50 (cell growth inhibition), OVCAR-3
# OVCAR3 cells [5] = experiment: PI staining cell-cycle distribution, OVCAR3; type: cell-based, human; conditions: 24 h
# A2780 = experiment: CCK-8 cell viability, A2780 ovarian cancer cells; type: cell-based, human; conditions: for IC50: Homo sapiens, A2780, 48 h, read-out: IC50 (cell growth inhibition), A2780
Compound,"organ weights (liver, kidneys, spleen, lung) [1]",effect on cell-cycle progression (A2780 cells [2]),cleavage of caspase 3 and PARP (A2780 cells [3]),cleavage of caspase 3 and PARP (OVCAR3 cells [4]),IC50 (OVCAR3) [µM],"growth of cells after 12 h of exposure (CCK8) (OVCAR3; OVCAR3, 12 h, data not shown)",effect on cell-cycle progression (OVCAR3 cells [5]),"growth of cells after 12 h of exposure (CCK8) (A2780; A2780, 12 h, data not shown)",IC50 (A2780) [µM],"EMT phenotype (E-cadherin, Vimentin, Snail, Slug expression) (A2780 cells [3])","histological findings (H&E; liver, kidneys, spleen, lung) [1]","EMT phenotype (E-cadherin, Vimentin, Snail, Slug expression) (OVCAR3 cells [4])"
N.N.O=C([O-])C1(C(=O)[O-])CCC1.[Pt+2] [Carboplatin],loss,–,–,–,–,–,–,–,–,–,–,–
"C[C@H]1[C@@H](O)O[C@@H]2O[C@@]3(C)CC[C@H]4[C@H](C)CC[C@@H]1[C@@]24OO3 [Compound 1, Dihydroartemisinin]",–,modest arrest in the G0/G1 phase,less effect,less effect,5.65,no apparent inhibition of growth,modest arrest in the G0/G1 phase,no apparent inhibition of growth,4.75,–,–,–
"N[C@@H](Cc1ccc(N(CCCl)CCCl)cc1)C(=O)O [Compound 3, melphalan]",Severe decreases in organ weight,arrested cells in the S phase,less effect,less effect,11.6,–,arrested cells in the S phase,–,23.2,no obvious effect,substantial necrosis of liver and spleen parenchymal cells,no obvious effect
